Experimental data reported in patent US7915276B2, “Berberrubine derivatives having antifungal activities” (priority 2006, dated 2011).

Columns and labels:
[1] = target: T1, chitin synthase 2 of Saccharomyces cerevisiae ECY38-38A(pAS6) (Saccharomyces cerevisiae, UniProt P14180); assay: In vitro enzyme assay for chitin synthase 2 of Saccharomyces cerevisiae (enzyme 2); format: biochemical; settings: relative to polyoxin D (50% inhibitory activity = value 5)
T1 construct: made in house; host or cells: Saccharomyces cerevisiae ECY38-38A (chs1-23 chs2::LEU2 cal1/csd2) carrying plasmid pAS6, grown in galactose medium; 130,000 x g membrane pellet
Outline: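 Values are scores: 5 means 50% inhibition at the same concentration as polyoxin D, lower scores 2- to 16-fold higher concentration, higher scores ½ to ⅛. Radiolabel from 1.1 mM UDP-[14C]-GlcNAc was incorporated into TCA-insoluble chitin over 90 min at 30 °C (pH 7.5 Tris, 2 mM Co2+). The enzyme was a trypsin-activated membrane fraction from CHS2-only S. cerevisiae ECY38-38A(pAS6).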

[2] = target: T2, chitin synthase 1 of Candida albicans chs2 Δ chs 3 Δ (Candida albicans, UniProt P23316); assay: In vitro enzyme assay for chitin synthase 1 of Candida albicans (enzyme 1); format: biochemical; settings: relative to polyoxin D (50% inhibitory activity = value 5)
T2 construct: Crude enzyme was prepared using the Candida albicans chs2 Δ chs 3 Δ mutant; endogenous in cells; host or cells: Candida albicans chs2Δ/chs2Δ chs3Δ/chs3Δ mutant; 130,000 x g membrane pellet
Outline: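 Trypsin-activated crude membrane chitin synthase 1 from C. albicans chs2Δ chs3Δ was incubated 90 min at 30 °C with 1.1 mM UDP-[14C]GlcNAc and 2 mM cobalt acetate in Tris-HCl pH 7.5. Filtered TCA precipitate was counted by scintillation; values are scores 1–8 against polyoxin D (5 = same concentration).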

[3] = test system: Candida albicans A207 (clinical isolate); assay: In vitro antifungal activity (MIC), NCCLS method; format: cell-based; settings: 48 hours
Outline: (§1)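 According to NCCLS guidance, each compound is diluted two-fold and challenged with a fungal inoculum of 5×10^2 to 2.5×10^3 cell/mL (final). Incubation lasts 48 hours.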

[4] = test system: Candida lusitaniae ATCC 42720; assay: In vitro antifungal activity (MIC), NCCLS method; format: cell-based; settings: 48 hours
Outline: as §1

[5] = test system: Candida glabrata ATCC 48435; assay: In vitro antifungal activity (MIC), NCCLS method; format: cell-based; settings: Candida glabrata ATCC 48435; 48 hours
Outline: as §1

[6] = test system: Mucor ramosissimus ATCC 90286; assay: In vitro antifungal activity (MIC), NCCLS method; format: cell-based; settings: 48 hours
Outline: as §1

[7] = test system: Candida tropicalis ATCC 13803; assay: In vitro antifungal activity (MIC), NCCLS method; format: cell-based; settings: 48 hours
Outline: as §1

[8] = test system: Aspergillus fumigatus ATCC 16424; assay: In vitro antifungal activity (MIC), NCCLS method; format: cell-based; settings: 48 hours
Outline: (§2)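 ATCC reference strains tested by NCCLS MIC method. Final inoculum 5×10^2 to 2.5×10^3 cell/mL over a two-fold dilution series; 48 h incubation.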

[9] = test system: Aspergillus flavus ATCC 64025; assay: In vitro antifungal activity (MIC), NCCLS method; format: cell-based; settings: 48 hours
Outline: as §2

[10] = test system: Aspergillus terreus ATCC 46941; assay: In vitro antifungal activity (MIC), NCCLS method; format: cell-based; settings: 48 hours
Outline: as §2

[11] = test system: Candida parapsilosis ATCC 34136; assay: In vitro antifungal activity (MIC), NCCLS method; format: cell-based; settings: Candida parapsilosis ATCC 34136; 48 hours
Outline: as §1

[12] = test system: Candida albicans ATCC 10231; assay: In vitro antifungal activity (MIC), NCCLS method; format: cell-based; settings: 48 hours
Outline: as §1

Candida krusei ATCC 6258 = assay: In vitro antifungal activity (MIC), NCCLS method; format: cell-based; settings: 48 hours
Outline: as §1

[13] = test system: Cryptococcus neoformans ATCC 36556; assay: In vitro antifungal activity (MIC), NCCLS method; format: cell-based; settings: RPMI 1640 medium, 72 hours
Outline: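 Broth microdilution per NCCLS: two-fold serial dilutions of test compound inoculated with fungal suspension at a final 5×10^2 to 2.5×10^3 cell/mL. Strains other than Cryptococcus neoformans were incubated 48 hours before MIC reading.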

T2 sequence (P23316 whole entry, stated change not applied): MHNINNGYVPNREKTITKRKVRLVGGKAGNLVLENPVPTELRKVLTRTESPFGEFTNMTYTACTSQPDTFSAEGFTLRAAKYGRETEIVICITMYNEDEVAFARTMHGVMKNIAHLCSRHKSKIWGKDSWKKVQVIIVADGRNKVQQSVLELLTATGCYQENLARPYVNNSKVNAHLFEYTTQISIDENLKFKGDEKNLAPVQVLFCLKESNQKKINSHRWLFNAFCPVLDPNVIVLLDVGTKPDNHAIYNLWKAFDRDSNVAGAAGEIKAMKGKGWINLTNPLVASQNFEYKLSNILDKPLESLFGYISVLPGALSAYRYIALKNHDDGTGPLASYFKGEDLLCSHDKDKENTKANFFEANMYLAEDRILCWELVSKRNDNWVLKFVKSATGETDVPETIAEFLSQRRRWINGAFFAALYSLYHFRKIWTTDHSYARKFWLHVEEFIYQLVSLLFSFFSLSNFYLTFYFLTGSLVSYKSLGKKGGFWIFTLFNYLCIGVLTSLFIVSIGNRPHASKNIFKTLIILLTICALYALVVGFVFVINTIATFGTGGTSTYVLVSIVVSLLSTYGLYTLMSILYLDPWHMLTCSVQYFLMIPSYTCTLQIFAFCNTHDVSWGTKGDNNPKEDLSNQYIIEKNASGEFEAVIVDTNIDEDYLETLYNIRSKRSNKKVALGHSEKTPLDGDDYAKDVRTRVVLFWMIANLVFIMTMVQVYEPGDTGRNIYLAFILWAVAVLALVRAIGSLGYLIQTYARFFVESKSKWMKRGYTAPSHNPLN
T1 sequence (P14180 whole entry): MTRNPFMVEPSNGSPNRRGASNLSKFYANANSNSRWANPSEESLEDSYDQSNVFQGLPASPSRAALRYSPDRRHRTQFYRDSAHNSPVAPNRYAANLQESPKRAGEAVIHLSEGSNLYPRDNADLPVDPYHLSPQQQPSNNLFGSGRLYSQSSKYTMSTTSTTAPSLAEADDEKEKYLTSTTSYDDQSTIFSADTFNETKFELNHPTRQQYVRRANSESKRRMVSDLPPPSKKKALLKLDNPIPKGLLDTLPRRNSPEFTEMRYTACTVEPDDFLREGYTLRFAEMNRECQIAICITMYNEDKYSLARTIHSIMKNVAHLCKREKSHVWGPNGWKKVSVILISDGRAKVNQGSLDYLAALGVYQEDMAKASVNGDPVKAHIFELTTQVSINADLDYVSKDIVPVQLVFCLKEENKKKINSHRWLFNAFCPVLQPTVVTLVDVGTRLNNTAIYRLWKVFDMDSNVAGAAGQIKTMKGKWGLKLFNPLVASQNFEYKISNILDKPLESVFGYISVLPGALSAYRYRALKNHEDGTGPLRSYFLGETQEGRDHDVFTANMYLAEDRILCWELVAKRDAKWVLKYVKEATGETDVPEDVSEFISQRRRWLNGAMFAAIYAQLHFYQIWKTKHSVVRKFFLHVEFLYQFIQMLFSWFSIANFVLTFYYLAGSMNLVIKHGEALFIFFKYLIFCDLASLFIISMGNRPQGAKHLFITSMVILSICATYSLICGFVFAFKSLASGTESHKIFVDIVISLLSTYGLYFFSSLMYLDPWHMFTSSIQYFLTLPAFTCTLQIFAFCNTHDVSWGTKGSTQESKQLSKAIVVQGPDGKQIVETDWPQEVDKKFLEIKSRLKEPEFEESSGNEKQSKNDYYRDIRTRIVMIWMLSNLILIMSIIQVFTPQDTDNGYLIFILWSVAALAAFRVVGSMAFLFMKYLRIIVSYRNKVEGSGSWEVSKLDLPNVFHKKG

| Substance | Relative activity Enzyme 2 [1] | Relative activity Enzyme 1 [2] | MIC (minimum inhibitory concentration) [3] | MIC (minimum inhibitory concentration) [4] | MIC (minimum inhibitory concentration) [5] | MIC (minimum inhibitory concentration) [6] | MIC (minimum inhibitory concentration) [7] | MIC (minimum inhibitory concentration) [8] | MIC (minimum inhibitory concentration) [9] | MIC (minimum inhibitory concentration) [10] | MIC (minimum inhibitory concentration) [11] | MIC (minimum inhibitory concentration) [12] | MIC (minimum inhibitory concentration) (Candida krusei ATCC 6258) | MIC (minimum inhibitory concentration) [13] |
| --- | --- | --- | --- | --- | --- | --- | --- | --- | --- | --- | --- | --- | --- | --- |
| 13-(4-tert-Butylbenzyl)-9-O-(3-hydroxypropyl)berberrubine chloride [Compound No. 43] | 7 (compounds having the inhibitory activity at ½, ¼ and ⅛ lower concentrations than that of polyoxin D were given the values of 6, 7 and 8, respectively) | 4 (Compounds having the inhibitory activity at 2-fold, 4-fold, 8-fold and 16-fold higher concentrations than that of polyoxin D were given the values of 4, 3, 2 and 1, respectively) | 0.5 µg/mL | 2 µg/mL | 2 µg/mL | 4 µg/mL | 0.5 µg/mL | 2 µg/mL | 8 µg/mL | 8 µg/mL | 2 µg/mL | 0.5 µg/mL | 1 µg/mL | 1 µg/mL |
| 13-(4-tert-Butylbenzyl)-9-O-(3-hydroxypropyl)berberrubine iodide [Compound No. 11] | 6 (compounds having the inhibitory activity at ½, ¼ and ⅛ lower concentrations than that of polyoxin D were given the values of 6, 7 and 8, respectively) | 4 (Compounds having the inhibitory activity at 2-fold, 4-fold, 8-fold and 16-fold higher concentrations than that of polyoxin D were given the values of 4, 3, 2 and 1, respectively) | 0.5 µg/mL | 2 µg/mL | 2 µg/mL | 4 µg/mL | 0.5 µg/mL | 2 µg/mL | 8 µg/mL | 8 µg/mL | 2 µg/mL | 0.5 µg/mL | 1 µg/mL | 1 µg/mL |
| 13-(4-tert-Butylbenzyl)-9-O-(4-isopropylbenzyl)berberrubine bromide [Compound No. 16] | 5 (A compound having the same inhibitory activity as that of polyoxin D at the same concentration was given the value 5) | 3 (Compounds having the inhibitory activity at 2-fold, 4-fold, 8-fold and 16-fold higher concentrations than that of polyoxin D were given the values of 4, 3, 2 and 1, respectively) | 1 µg/mL | 4 µg/mL | 2 µg/mL | 8 µg/mL | 1 µg/mL | 4 µg/mL | 8 µg/mL | 8 µg/mL | 8 µg/mL | 1 µg/mL | 2 µg/mL | 2 µg/mL |
| 13-(4-tert-Butylbenzyl)-9-O-(4-isopropylbenzyl)berberrubine chloride [Compound No. 48] | 5 (A compound having the same inhibitory activity as that of polyoxin D at the same concentration was given the value 5) | 2 (Compounds having the inhibitory activity at 2-fold, 4-fold, 8-fold and 16-fold higher concentrations than that of polyoxin D were given the values of 4, 3, 2 and 1, respectively) | 1 µg/mL | 4 µg/mL | 2 µg/mL | 8 µg/mL | 1 µg/mL | 4 µg/mL | 8 µg/mL | 8 µg/mL | 8 µg/mL | 1 µg/mL | 2 µg/mL | 2 µg/mL |
| 13-(4-tert-Butylbenzyl)-9-O-(4-tert-butylbenzyl)berberrubine bromide [Compound No. 15] | 5 (A compound having the same inhibitory activity as that of polyoxin D at the same concentration was given the value 5) | 3 (Compounds having the inhibitory activity at 2-fold, 4-fold, 8-fold and 16-fold higher concentrations than that of polyoxin D were given the values of 4, 3, 2 and 1, respectively) | 1 µg/mL | 4 µg/mL | 4 µg/mL | 8 µg/mL | 1 µg/mL | 4 µg/mL | 8 µg/mL | 8 µg/mL | 8 µg/mL | 1 µg/mL | 4 µg/mL | 2 µg/mL |
| 13-(4-tert-Butylbenzyl)-9-O-(4-tert-butylbenzyl)berberrubine chloride [Compound No. 47] | 5 (A compound having the same inhibitory activity as that of polyoxin D at the same concentration was given the value 5) | 2 (Compounds having the inhibitory activity at 2-fold, 4-fold, 8-fold and 16-fold higher concentrations than that of polyoxin D were given the values of 4, 3, 2 and 1, respectively) | 1 µg/mL | 4 µg/mL | 4 µg/mL | 8 µg/mL | 1 µg/mL | 4 µg/mL | 8 µg/mL | 8 µg/mL | 8 µg/mL | 1 µg/mL | 4 µg/mL | 2 µg/mL |
| 13-(4-tert-Butylbenzyl)-9-O-(6-chlorohexyl)berberrubine chloride [Compound No. 44] | 6 (compounds having the inhibitory activity at ½, ¼ and ⅛ lower concentrations than that of polyoxin D were given the values of 6, 7 and 8, respectively) | 2 (Compounds having the inhibitory activity at 2-fold, 4-fold, 8-fold and 16-fold higher concentrations than that of polyoxin D were given the values of 4, 3, 2 and 1, respectively) | 0.5 µg/mL | 2 µg/mL | 2 µg/mL | 4 µg/mL | 0.5 µg/mL | 2 µg/mL | 8 µg/mL | 8 µg/mL | 2 µg/mL | 0.5 µg/mL | 1 µg/mL | 1 µg/mL |
